Experimental findings from patent US20240228572A1 (i2o Therapeutics, Inc., priority 2020, published 2024) are described below.

By fraction unbound is commonly meant the share of the substance not bound to proteins or other matrix. For orientation: pEC50 means the negative decadic logarithm of the EC50, by convention in mol/L.

The target in one data set is serum albumin (Macaca fascicularis, UniProt A2V9Z4). As to the kind of experiment: Fraction unbound (fu) in plasma by surface plasmon resonance, monkey. As to conditions: SPR binding to serum albumin. The data set is classed as in vitro ADME. Here is the method: Conventional methods of measuring plasma protein binding, such as equilibrium dialysis, ultrafiltration and ultracentrifugation, are not reliable with peptides because of their tendency to adsorb to the surface of plastic tubing, dialysis membranes and molecular weight cut-off filters. As a result, the extent to which acylated peptides bind to serum albumin was evaluated using surface plasmon resonance (SPR).
A general note: SPR reads the build-up and loss of mass on a sensor chip optically.

The nature of data set [1]: Stability in subcutaneous (SC) tissue homogenates, rat. Type of data set: in vitro ADME. As to conditions: subcutaneous (SC) tissue homogenate, pH 7.4, read-out: (H)SC tissue stability t½ (converted). Here is the method: In vitro incubations in subcutaneous (SC) tissue homogenates were used to characterize the ability of peptides to resist pre-systemic degradation by proteases and peptidases after SC administration. In vivo nonclinical studies have shown that peptidase activity in the SC space can limit the bioavailability of a peptide after SC administration. Peptides with high SC bioavailability are stable in this assay, while peptides with low SC bioavailability are unstable in this assay.
Human SC tissue was homogenized in cold 25 mM HEPES buffer (pH 7.4, 10-fold volume based on sample weight), and then filtered through a double layer of cheesecloth. The filtrates were aliquoted, flash frozen on a methanol/dry ice bath and stored at −80° C. The protein concentration of each pooled batch was determined using the BCA protein assay. Thawed stocks of human SC tissue homogenates were diluted to 1.0 mg protein/mL in 25 mM HEPES buffer (pH 7.4) and aliquoted into a 96-well plate. The diluted SC homogenates were pre-warmed for 10 minutes at 37° C. Reactions were initiated by the addition of test peptide (10 mcM final concentration) also dissolved in 25 mM HEPES buffer (pH 7.4). Reactions were maintained at 37° C. in a shaking water bath. […] Samples were analyzed by UPLC-MS/MS.

For another data set, the target named is T1, hGIPR (Homo sapiens, UniProt P48546).
T1 sequence (P48546 22-466): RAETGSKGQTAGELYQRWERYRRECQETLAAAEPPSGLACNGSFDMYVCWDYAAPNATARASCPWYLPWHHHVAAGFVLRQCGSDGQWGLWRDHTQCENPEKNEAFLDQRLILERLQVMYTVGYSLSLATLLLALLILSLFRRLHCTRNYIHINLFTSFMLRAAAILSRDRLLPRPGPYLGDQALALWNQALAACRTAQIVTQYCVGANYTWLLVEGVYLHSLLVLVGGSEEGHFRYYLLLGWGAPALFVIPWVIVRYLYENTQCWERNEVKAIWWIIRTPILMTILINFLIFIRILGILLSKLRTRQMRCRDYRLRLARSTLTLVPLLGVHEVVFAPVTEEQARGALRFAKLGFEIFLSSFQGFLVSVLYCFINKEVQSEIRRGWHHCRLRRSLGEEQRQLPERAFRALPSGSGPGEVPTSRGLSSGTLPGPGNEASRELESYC
Briefly: cAMP accumulation assay, hGIPR. The data set is classed as cell-based. Here is the method:
On day 1, CHO-K1 cells were plated at 1.5 million cells per T75 flask in 90% F12-K media supplemented with 10% FBS. On day 3 cells were transfected with 40 mcg of each expression plasmid using Lipofectamine 2000 transfection reagent. On day 5, cells were dispensed at 1000 cells per well in white 384-well OptiPlates in 5 mcL of assay buffer consisting of 1×HBSS, 5 mM HEPES, 0.5 mM IBMX, and 0.1% casein.
Peptides were serially diluted 4-fold in assay buffer to final concentrations ranging from 1×10^−9 M to 9.5×10^−16 M. Two assay controls consisting of 50 mcM forskolin (cAMP system maximum) or assay buffer only (cAMP system minimum) were also prepared. Five microliters of each peptide-concentration, or assay control, was added to triplicate wells and incubated for thirty minutes at room temperature. […] Plates were read on an Envision fluorescent plate reader (PerkinElmer).
Test values were first normalized to the system maximum and system minimum averaged values in Excel using the formula: (test value−system min average)/(system max average -system min average)*100. […] Data from up to 3 replicate tests were analyzed for each peptide. […]
A general note: Changes in cAMP serve as a functional read-out for many G protein-coupled receptors.

Data set [2] is described as follows: Metabolic stability in human kidney brush border membranes (kBBM). Type of data set: in vitro ADME. As to conditions: 1 mcM peptide, 50 mcg protein/mL, 37° C., pH 7.4, read-out: kBBM t½. Here is the method:
Brush border membranes from rat and human kidney tissue were prepared via centrifugation and stored at −70° C. Thawed stocks of rat or human kBBM were diluted to the appropriate concentration in 25 mM HEPES buffer (pH 7.4) containing 1% casein and aliquoted into a 96-well plate. The kBBM solutions were pre-warmed for 10 minutes at 37° C. Reactions were initiated by the addition of test peptide (1 mcM final concentration) also dissolved in 25 mM HEPES buffer (pH 7.4) containing 1% casein. The final concentration of kBBM in each incubation was 50 mcg protein/mL. Reactions were maintained at 37° C. in a shaking water bath. At 0, 0.25, 0.5, 1.0, 2.0, and 4.0 h post-initiation, 30 mcL of the reaction mixture was removed and placed into a 96-well plate containing 120 mcL of ice-cold methanol containing 2.5% formic acid. Quenched samples were centrifuged at 2178×g for 10 min and then a portion of the supernatants were transferred to a clean 96-well plate and diluted 1:1 with water.

Molecules are shown by their SMILES. pEC50: −log10 of the molar value. *1 amine or outer side, *2 acyl side, *3 side chain or, on linkers, in order; H or OH if unused. Where a SMILES comes first, the peptide text is derived from it. Side-chain parts run from the residue outwards. [ ]: non-standard residue; d: D form. The star is where a group is joined. C20 diacid = O=C(O)CCCCCCCCCCCCCCCCCCC(=O)*; γGlu = O=C(O)[C@H](CCC(=O)[*:2])N[*:1]; AEEA = NCCOCCOCC(=O)O; Aib = CC(C)(N)C(=O)O

Chain of serum albumin (A2V9Z4 25-608): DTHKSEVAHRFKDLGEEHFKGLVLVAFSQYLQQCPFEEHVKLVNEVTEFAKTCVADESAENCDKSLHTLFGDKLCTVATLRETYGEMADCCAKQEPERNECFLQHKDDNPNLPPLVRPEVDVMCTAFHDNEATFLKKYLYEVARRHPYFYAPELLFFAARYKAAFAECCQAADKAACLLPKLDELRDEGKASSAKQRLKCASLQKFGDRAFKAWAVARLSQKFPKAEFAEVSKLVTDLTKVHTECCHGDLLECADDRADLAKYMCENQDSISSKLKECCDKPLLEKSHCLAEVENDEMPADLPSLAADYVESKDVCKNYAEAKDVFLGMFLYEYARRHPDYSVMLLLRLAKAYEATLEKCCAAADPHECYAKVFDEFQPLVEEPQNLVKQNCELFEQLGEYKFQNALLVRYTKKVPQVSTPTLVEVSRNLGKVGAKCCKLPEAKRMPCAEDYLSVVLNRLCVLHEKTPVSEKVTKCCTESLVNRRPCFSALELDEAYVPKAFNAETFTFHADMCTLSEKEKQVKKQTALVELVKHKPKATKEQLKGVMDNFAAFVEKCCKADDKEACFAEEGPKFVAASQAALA

Turning to `CC(C)C[C@H](NC(=O)[C@H](Cc1ccc(O)cc1)NC(=O)[C@H](CCCCN)NC(=O)[C@H](CO)NC(=O)[C@H](Cc1ccc(O)cc1)NC(=O)[C@H](CC(=O)O)NC(=O)[C@H](CO)NC(=O)[C@@H](NC(=O)[C@H](Cc1ccccc1)NC(=O)[C@@H](NC(=O)CNC(=O)[C@H](Cc1c[nH]cn1)NC(=O)[C@H](CO)NC(=O)[C@@H](N)Cc1ccc(O)cc1)[C@@H](C)O)[C@@H](C)O)C(=O)N[C@@H](CC(=O)O)C(=O)NC(C)(C)C(=O)N[C@@H](CCCCN)C(=O)N[C@@H](Cc1ccc(O)cc1)C(=O)N[C@@H](C)C(=O)N[C@@H](CCC(N)=O)C(=O)N[C@@H](CCCCNC(=O)CC[C@H](NC(=O)CC[C@H](NC(=O)COCCOCCNC(=O)CCCCCCCCCCCCCCCCCCC(=O)O)C(=O)O)C(=O)O)C(=O)N[C@@H](Cc1ccccc1)C(=O)N[C@H](C(=O)NC(C)(C)C(=O)N[C@@H](Cc1c[nH]c2ccccc12)C(=O)N[C@@H](CC(C)C)C(=O)N[C@@H](CCC(=O)O)C(=O)N[C@@H](CC(=O)O)C(=O)N[C@@H](CCC(=O)O)C(=O)N1CCC[C@H]1C(=O)N[C@@H](CO)C(=O)N[C@@H](CO)C(=O)NCC(=O)N[C@@H](C)C(=O)N1CCC[C@H]1C(=O)N1CCC[C@H]1C(=O)N1CCC[C@H]1C(=O)N[C@@H](CO)C(=O)O)C(C)C` [Compound A6] (H-YSHGTFTSDYSKYLD[Aib]KYAQK([γGlu-γGlu-AEEA-C20 diacid])FV[Aib]WLEDEPSSGAPPPS-OH; N-terminus assumed), the fraction unbound on serum albumin came out at 0.0048. The half-life at 10 mcM in data set [1] is 9 h. At hGIPR, this compound had a negative-log EC50 (pEC50) of less than 9.00. For the same compound, the half-life at 1 mcM in data set [2] was more than 72 h.
